For orientation: EC50 means the midpoint of the concentration-response curve. The low end stands for greater potency, the high end for weaker potency.

One experiment has as its target T1, hM4 receptors (Homo sapiens, UniProt P08173).
T1 construct: expressed in transfected cells; host or cells: CHO cells
T1 sequence (P08173 1-479): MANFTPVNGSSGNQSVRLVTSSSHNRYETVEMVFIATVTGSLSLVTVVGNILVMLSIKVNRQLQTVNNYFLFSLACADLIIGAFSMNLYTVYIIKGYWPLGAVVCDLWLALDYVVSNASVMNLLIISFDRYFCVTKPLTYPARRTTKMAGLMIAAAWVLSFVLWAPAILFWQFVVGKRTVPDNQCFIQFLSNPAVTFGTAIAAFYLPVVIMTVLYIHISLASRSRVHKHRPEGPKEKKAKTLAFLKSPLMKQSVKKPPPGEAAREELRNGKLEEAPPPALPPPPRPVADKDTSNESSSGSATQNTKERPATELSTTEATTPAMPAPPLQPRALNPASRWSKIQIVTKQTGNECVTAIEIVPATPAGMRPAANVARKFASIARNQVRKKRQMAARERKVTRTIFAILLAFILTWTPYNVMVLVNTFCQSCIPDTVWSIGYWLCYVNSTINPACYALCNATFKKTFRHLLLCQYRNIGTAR
Put plainly: Human M4 PAM PERK assay (CHO cells, TR-FRET, with EC20 acetylcholine). It is filed as cell-based. A digest of the protocol:
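CHO cells expressing human or rat M4, serum-starved 4 h, then given compound (10-point, 10 μM top, ½-log) with EC20 acetylcholine (10 nM final) for 5 min at 37 °C. Lysates assayed for phospho-ERK by TR-FRET after 2 h detection at RT.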
In general terms: In TR-FRET formats the signal depends on donor and acceptor labels being close together.

The test system of experiment [1] is amphetamine-evoked hyperlocomotion. Put plainly: Amphetamine-evoked hyperlocomotion in rats (open field). It is filed as in vivo, rat. The conditions noted are these: Sprague Dawley rats, 0.5 mg/kg amphetamine s.c., distance traveled in the 60 min after AMP. How it is done: Compounds may be tested for ability to impact behavior activity of rats according to the following procedures. Animals: Adult male, Sprague Dawley rats (Envigo, Indianapolis, IN, USA) are housed in a colony maintained at 23° C. with 12 h light/dark cycles (lights on at 0600 hours). All animals weigh 290-330 g at the beginning of the study and are equally divided into 5 groups (n=8 per group) and received one of the treatment conditions listed below. Behavioral Procedures: Studies are conducted in MedAssociates open field chambers (27.3 cm×27.3 cm×20.3 cm, MedAssociates, St. Albans, VT) in which movement is automatically tracked and recorded by 16 beam arrays. The administration pretreatment of the test article is determined to coincide with Tmax at the time of the amphetamine-evoked session with optimal route of administration. All groups are subcutaneously treated with 0.5 mg/kg amphetamine (AMP). The test article is tested in three dose groups with a half-log increase between doses. Risperidone (0.55 mg/kg, 30 minutes, s.c.) may be used as a positive control and is administered to group 5. To determine the role of test article on AMP-evoked hyperlocomotion, rats are placed in the open area and allowed to habituate for 30 min before being s.c. dosed with 0.5 mg/kg AMP. Locomotor data (distance traveled) is recorded as 5-minute bins throughout the 90-minute session. The dose of AMP is chosen based on the selective increase in locomotor behavior relative to stereotypes. The dose of risperidone is chosen that produced reliable effects and served as a positive control. Statistical Analysis: Spontaneous locomotion (prior to AMP administration) is calculated as the total distance traveled during the first 30 minutes of the experimental session. AMP-evoked responses are calculated as the total distance traveled during the last 60 minutes of the experimental session which commenced immediately after AMP administration. Locomotor data may be analyzed by a one-way ANOVA. When there is a significant overall ANOVA, post hoc comparisons may be made by Dunnett's test with statistical significance determined as p<0.05. […] Behavioral Procedures: Studies were conducted in MedAssociates open field chambers (27.3 cm×27.3 cm×20.3 cm, MedAssociates, St. Albans, VT) in which movement was automatically tracked and recorded by 16 beam arrays. Administration pretreatment of the test article was determined to coincide with Tmax at the time of the amphetamine-evoked session with optimal route of administration. […] Locomotor data (distance traveled) was recorded as 5-minute bins throughout the 90-minute session. […] Statistical Analysis: Spontaneous locomotion (prior to AMP administration) was calculated as the total distance traveled during the first 30 minutes of the experimental session. […]

`Cc1cc(=O)n(C)c2c1CN(C(=O)CC1CN(c3cc(F)cc(C4CC4)c3)C1)C2` [Compound I-4] had an EC50 on hM4 receptors of 50 to 200 nM. For the same compound, in experiment [1], the “Dose Amount of Compound at which rats displayed a reduction in amphetamine-evoked hyperlocomotion activity” value is 10 mg/kg.
The corresponding values for `Cc1c2c(n(C)c(=O)c1F)CN(C(=O)CC1CN(c3ccc(C4CC4)c(F)c3)C1)C2` [Compound I-88] are below 50 nM and 10 mg/kg.
On the same counts, the results for `Cc1cc(=O)n(C)c2c1CN(C(=O)CC1CN(c3cccc(F)c3F)C1)C2` [Compound I-14] are 50 to 200 nM and 32 mg/kg.
On the same counts, the results for `Cc1c2c(n(C)c(=O)c1C)CN(C(=O)CC1CN(c3ccnc(C(F)(F)F)c3)C1)C2` [Compound I-42, 1,3,4-Trimethyl-6-(2-(1-(2-(trifluoromethyl)pyridin-4-yl)azetidin-3-yl)acetyl)-1,5,6,7-tetrahydro-2H-pyrrolo[3,4-b]pyridin-2-one] are below 50 nM and 32 mg/kg.

The values above are taken from patent US20260209220A1, “SUBSTITUTED TETRAHYDROPYRROLO-PYRIDINONE COMPOUNDS AND THEIR USE IN TREATING MEDICAL CONDITIONS” (Karuna Therapeutics, Inc., priority 2022, published 2026).
